Source: patent US20020188010A1, “Compositions of matter containing L-glutamine and pyridoxal-alpha-ketoglutarate” (priority 2001, published 2002)

Experiments:
IBS (6 yrs duration) = experiment: Improvement of IBS in patients given L-glutamine alone or L-glutamine/PAK; format: in vivo
From the text: (§1) [table] While the compositions of the invention have been tested on patients suffering from disorders affecting the intestinal mucosa, the methods of the invention are appropriate for use in treating other diseases wherein stimulation of cell growth or repair of cells with natural rapid turn-over is desirable. Such diseases include, but are not limited to, leaky gut syndrome and other diseases of maldigestion, chronic fatigue syndrome, fibromyalgia, diabetes, thyroiditis and chronic viral disease. The combination therapy described herein will, by enhancing the growth and the repair of intestinal cells, increase the ability of the intestinal wall to reject and neutralize parasites and inhibit overgrowth of fungal organisms.

Ileitis (9 yrs duration) = experiment: Improvement of ileitis in patients given L-glutamine alone or L-glutamine/PAK; format: in vivo
From the text: as §1

For `NC(=O)CC[C@H](N)C(=O)O` [L-glutamine], the “percent of improvement upon administration of the L-glutamine alone” value (“percent” for short) (IBS (6 yrs duration); dose 3 gm L-glutamine) was “none”, the “percent” value (IBS (6 yrs duration); dose 15 gm L-glutamine) was 25% and the “percent” value (IBS (6 yrs duration); dose 30 gm L-glutamine) was 45%. For the same compound, the “percent” value (IBS (6 yrs duration); dose 60 gm L-glutamine) was 85%, the “percent” value (Ileitis (9 yrs duration); dose 3 gm L-glutamine) was 5% and the “percent” value (Ileitis (9 yrs duration); dose 15 gm L-glutamine) was 20%. The “percent” value (Ileitis (9 yrs duration); dose 30 gm L-glutamine) was 50% and the “percent” value (Ileitis (9 yrs duration); dose 60 gm L-glutamine) was 90%.
